Source: patent US7202048B2, “Onset of force development as a marker of thrombin generation” (Hemodyne, Inc., priority 2002, dated 2007)
Entries after “also recorded” stand apart in the source; their conditions may differ.

What was measured:
Assay type in all cases: cell-based, human
[1] = test system: normal whole blood; test: Thrombin generation time (TGT), onset of PCF after calcium and batroxobin
Procedure: FIG. 1. Determination of the thrombin generation time (TGT) from the kinetics of platelet contractile force (PCF) development after addition of calcium (10 mM final) and batroxobin (0.21 μg/ml final) to 700 μl of citrated (3.2%) whole blood at time zero. The TGT is taken to be the initial inflection point of the PCF curve, ie. the moment the PCF first begins to increase.
(§1) The patients and normal controls in this study were enrolled under a series of protocols approved by the Institutional Review Board for Human Studies of Virginia Commonwealth University. Written consent was obtained from each volunteer. Blood was obtained via aseptic venipuncture into evacuated tubes containing 3.2% sodium citrate.
(§2) Whole blood clot formation was induced by the addition of CaCl2 or a combination of CaCl2 and batroxobin (0.21 μg/ml). Platelet contractile force development and clot elastic modulus were measured for 1200 seconds.
Citrated blood clotted with batroxobin, or other similar enzymes (e.g., reptilase), and calcium develops PCF. […] During this time period, thrombin is generated by re-calcification. Since the fibrin network is in place prior to the generation of thrombin, PCF becomes apparent as soon as a small amount of thrombin is generated (FIG. 1). Thus, the inflection or take off point in the PCF curve serves as a marker of thrombin generation in the batroxobin mediated assay. For ease in identification, the first derivative of the curve in FIG. 1 will provide a sharp break where the curve increases (TGT being at the spike). The instrumentation used for the analysis, such as that shown in FIG. 9, can provide the output of FIG. 1 or the first derivative for identification of TGT, or, alternatively, the output could simply be an indicator light array indicating when the TGT is in the normal range or outside of the normal range.
We designate the time between calcium addition and initial PCF development the Thrombin Generation Time (TGT). Similar results can be obtained without using a snake venom enzyme if one simply recalcifies the plasma sample. Since thrombin generation must be followed by fibrin clot formation before PCF can begin to occur in the recalcification assay, the lag phase tends to be longer and more variable. Similar assays termed reptilase clot retractions were shown in the early seventies to be sensitive to a variety of antiplatelet and anticoagulant agents (10).

[2] = test system: normal whole blood; test: Clot elastic modulus (CEM) in batroxobin/calcium-clotted whole blood (Hemodyne); details: 1200 seconds
Procedure: as §1, §2
Clot elastic modulus was measured by applying a downward force of known magnitude to the upper plate of the Hemodyne apparatus (9). The amount of downward displacement caused by the force was measured. The ratio of downward force (stress) to downward displacement (strain) was used to calculate the elastic modulus. Stress equals the force applied divided by the area of application and strain is the degree of shape change induced by the applied force.

[3] = test system: normal whole blood; test: Platelet contractile force (PCF) in batroxobin/calcium-clotted whole blood (Hemodyne); details: for PCF: 1200 seconds
Procedure: as §1, §2
The Hemodyne® hemostasis analyzer (Hemodyne, Inc., Richmond, Va., USA) measures forces generated by platelets within a clot formed between a thermostated cup and parallel upper plate (7,8). Before clotting, the upper plate is centered above the cup and lowered into the sample. As the clot forms, it attaches to the inner walls of the cup and the bottom of the upper plate. The entire sample volume is contained between the upper and lower surfaces. Once fibrin is formed, platelets within the network pull fibrin strands inward transmitting force through the network to the surfaces to which the clot is adherent. Force measurement is accomplished utilizing a transducer coupled to the upper plate. As platelets contract, the transducer produces an electrical output proportional to the amount of force generated. The transducer output is continuously recorded.

[4] = 0.165 U/ml added to normal whole blood
[5] = 0.330 U/ml added to normal whole blood
[6] = 0.660 U/ml added to normal whole blood
[7] = 1.320 U/ml added to normal whole blood
[8] = increasing concentrations in normal whole blood
[9] = bivalirudin 3.5 μg/ml in normal whole blood

| Substance | TGT [1, 4] | TGT [1, 5] | TGT [1, 6] | TGT [1, 7] | Effect on TGT [1, 8] | CEM [2, 4] | CEM [2, 5] | CEM [2, 6] | CEM [2, 7] | PCF [3, 4] | PCF [3, 5] | PCF [3, 6] | PCF [3, 7] | Effect on PCF [3, 8] | Effect on TGT [1, 9] | Effect on PCF [3, 9] |
| --- | --- | --- | --- | --- | --- | --- | --- | --- | --- | --- | --- | --- | --- | --- | --- | --- |
| Hirudin | 420 s | 480 s | 560 s | >1200 s | prolongs; also recorded: dose depend prolongation | 12.34 Kdynes/cm^2 | 11.21 Kdynes/cm^2 | 6.50 Kdynes/cm^2 | 0.73 Kdynes/cm^2 | 4.01 Kdynes | 3.57 Kdynes | 1.80 Kdynes | 0.70 Kdynes | declines; also recorded: reduction |  |  |
| bivalirudin |  |  |  |  |  |  |  |  |  |  |  |  |  |  | prolongs | lower; also recorded: decreases |
